This is an account of results in patent US20100248223A1, “ASSESSING OUTCOMES FOR BREAST CANCER PATIENTS” (MAYO FOUNDATION FOR MEDICAL EDUCATION AND RESEARCH, priority 2006, published 2010).

One data set deals with CYP2D6 enzyme system (Homo sapiens, UniProt P10635). To be noted: classification from cited literature; cited from earlier work.
Data set [1] deals with resected ER positive breast cancer. The conditions noted are these: for 9 year RFS rate / 5-year DFS: node negative.
Text: Patients. […] Postmenopausal women with node-negative disease were required to have stage T1c or T2N0M0 cancer and could be any age, whereas women with node-positive disease were required to be at least 65 years of age with a tumor stage T1 (any N) or T2N1M0. […] Patients were surgically treated with either a modified radical mastectomy or breast conservative therapy including lumpectomy, axillary nodal dissection, and radiation therapy. The axillary dissection must have involved at least levels I and II and the examination of at least 6 axillary nodes. […] Postlumpectomy radiation therapy consisted of a total cumulative breast dose of 5040 cGy in 28 fractions, and those with axillary nodal involvement also received radiation to the axilla and supraclavicular regions. Patients were classified as ER positive if resected breast tissue contained ≧10 fmol of ER polypeptide/mg cytosol protein or was positive for ER polypeptide by an immunohistochemical assay. All patients were randomized within 6 weeks of definitive surgery.
Patients were stratified based on axillary lymph node status (0, 1-3, 4-9 vs. 10 or more), age (<65 years vs. >65), primary tumor size (<3 cm vs. >3 cm), ER status (10-49 fmol vs. 50 fmol or greater vs. positive by immunohistochemical assay), and extent of surgery (mastectomy vs. breast conservation therapy).
Study Design and End Points. One objective of this study was to examine the relationship between the HOXB13:IL-17BR expression ratio and clinical outcomes of relapse-free survival, disease-free survival, and overall survival. Relapse-free survival (RFS) was defined as the time from randomization to documentation of the first of the following events: any recurrence (local, regional or distant) of breast cancer, a contralateral breast cancer or death. When estimating the distribution of RFS, patients who developed a non-breast second primary cancer (other than squamous or basal cell carcinoma of the skin, carcinoma in situ of the cervix, or lobular carcinoma in situ of the breast) prior to the diagnosis of a breast event were censored on the day their second primary was diagnosed. Patients who were alive without a breast recurrence, contralateral breast cancer or a second non-breast primary cancer were censored at the date of their last disease evaluation. Disease-free survival (DFS) was defined as the time from randomization to documentation of the first of the following events: any recurrence (local, regional or distant) of breast cancer, a contralateral breast cancer, a second primary cancer, or death due to any cause. Patients who were alive without any of these events were censored at the date of their last disease evaluation. Overall survival (OS) was estimated as the time from registration to death due to any cause.
Relapse-free (RF) time was defined as the time from randomization to documentation of a breast event where a breast event is any recurrence (local, regional, or distant) of breast cancer or the documentation of contralateral breast cancer (including ductal carcinoma in situ). When estimating the distribution of RF time, patients who developed a non-breast second primary cancer (other than squamous or basal cell carcinoma of the skin, carcinoma in situ of the cervix, or lobular carcinoma in situ of the breast) prior to the diagnosis of a breast event were censored on the day their second primary was diagnosed. Patients (alive or dead) without a breast recurrence, contralateral breast cancer or a second non-breast primary cancer were censored at the date of their last disease evaluation.
Disease-free survival (DFS) was defined as the time from randomization to documentation of the first of the following events: any recurrence (local, regional or distant) of breast cancer, the documentation of contralateral breast cancer, or death due to any cause.
The mark [2] stands for this setting: patients with gene expression data (n=206), oral tamoxifen 20 mg daily for 5 years.

The structures appear in SMILES notation. Like-named read-outs stand apart in the source and are kept apart here.

Chain of CYP2D6 enzyme system (P10635 whole entry): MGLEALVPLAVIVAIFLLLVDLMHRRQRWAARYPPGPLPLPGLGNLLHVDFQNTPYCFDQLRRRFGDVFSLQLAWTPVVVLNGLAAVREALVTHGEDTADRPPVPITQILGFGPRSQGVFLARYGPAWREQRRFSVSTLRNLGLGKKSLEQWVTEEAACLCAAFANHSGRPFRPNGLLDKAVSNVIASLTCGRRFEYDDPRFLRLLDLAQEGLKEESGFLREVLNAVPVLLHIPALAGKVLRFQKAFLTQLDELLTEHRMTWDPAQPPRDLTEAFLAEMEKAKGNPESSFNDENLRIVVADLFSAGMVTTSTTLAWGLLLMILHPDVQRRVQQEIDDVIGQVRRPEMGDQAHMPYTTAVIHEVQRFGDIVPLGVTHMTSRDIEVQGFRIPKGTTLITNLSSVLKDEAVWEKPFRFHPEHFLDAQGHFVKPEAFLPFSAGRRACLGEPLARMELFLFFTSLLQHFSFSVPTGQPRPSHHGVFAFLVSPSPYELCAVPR

For `Fc1ccc([C@@H]2CCNC[C@H]2COc2ccc3c(c2)OCO3)cc1` [paroxetine], the “strength of inhibition of the CYP2D6 enzyme system” value on CYP2D6 enzyme system is “potent”.

On to `O=C(CCCN1CCC(O)(c2ccc(Cl)cc2)CC1)c1ccc(F)cc1` [haloperidol], for which the “strength of inhibition of the CYP2D6 enzyme system” value at CYP2D6 enzyme system is “moderate”.

Consider `CN/C(=N/CCSCc1nc[nH]c1C)NC#N` [cimetidine], for which, on CYP2D6 enzyme system, the “strength of inhibition of the CYP2D6 enzyme system” value is given as “moderate”.

As for `CN(C)CCC=C1c2ccccc2COc2ccccc21` [doxepin], the “strength of inhibition of the CYP2D6 enzyme system” value at CYP2D6 enzyme system is recorded as “moderate”.

In the case of `CN[C@H]1CC[C@@H](c2ccc(Cl)c(Cl)c2)c2ccccc21` [sertraline], the “strength of inhibition of the CYP2D6 enzyme system” value at CYP2D6 enzyme system is “moderate”.

As for `CC/C(=C(\c1ccccc1)c1ccc(OCCN(C)C)cc1)c1ccccc1` [tamoxifen], the “patients reporting mild (grade 1) hot flashes” value (223 patients) was found to be 40%. The “patients reporting moderate (grade 2) hot flashes” value (223 patients) was 15%. Where the note is “223 patients”, the “patients reporting severe (grade 3) hot flashes” value was determined as 5%. For the same molecule, the “% of patients who developed moderate or severe hot flashes” value by setting is: (CYP2D6 (*4) *4/Wt genotype) 9/40 (23%); (CYP2D6 (*4) Wt/Wt genotype) 27/137 (20%); (CYP2D6 *4/WT or WT/WT genotypes (n=177)) 20%; (CYP3A5 (*3) A/A genotype) 1/6 (17%); (CYP3A5 (*3) G/A genotype) 6/24 (25%); (CYP3A5 (*3) G/G genotype) 37/175 (21%). The “9 year RFS rate” value in data set [1] (Goetz index high risk) was 46%; in data set [1] (Goetz index intermediate risk) it was 65%; in data set [1] (Goetz index low risk) it was 87%. For the same molecule, the “5-year DFS” value came to 94% in data set [1] (risk profile 1: 2-gene ratio <−1.339, CYP2D6 extensive); 83% in data set [1] (risk profile 3: 2-gene ratio >−1.339, CYP2D6 extensive); 57% in data set [1] (risk profile 4: 2-gene ratio >−1.339, CYP2D6 decreased). In addition, in data set [1] (setting [2]), the “Kaplan-Meier estimate for the 5 year DFS” value is on record as 74.3%. In addition, the “Kaplan-Meier estimate for the 5 year OS” value in data set [1] (setting [2]) is reported as 78.2%. For the same molecule, the “Kaplan-Meier estimate for the 5 year RFS” value in data set [1] (setting [2]) is given as 75.6%.
